From ChEMBL document CHEMBL5137025, “Tuberculosis Drug Discovery: Challenges and New Horizons” (J Med Chem, 2022)
Converted amounts (≈) assume the structure as drawn.

How the values were obtained:
[1] = system: Mycobacterium tuberculosis; test: microbe, parasite or virus in culture; details: H37Rv
Description: Antibacterial activity against Mycobacterium tuberculosis H37Rv assessed as inhibition of bacterial growth

[2] = system: Mycobacterium tuberculosis; test: Antibacterial activity against Mycobacterium tuberculosis in chronic Mtb infection Wistar rat model assessed as reduction in log10 CFU in lungs at 100 mg/kg, po; type: functional
[3] = system: Mycobacterium tuberculosis; test: Antibacterial activity against Mycobacterium tuberculosis in chronic Mtb infection mouse model assessed as reduction in log10 CFU at 100 mg/kg bid; type: functional
[4] = system: Mycobacterium tuberculosis; test: Antibacterial activity against Mycobacterium tuberculosis in acute Mtb infection mouse model assessed as reduction in log10 CFU at 200 mg/kg for 3 weeks; type: functional
HepG2 [5] = test: Cytotoxicity against human HepG2 cells; type: functional
[6] = Solubility of the compound; type: physicochemical
[7] = Oral bioavailability in mouse; type: ADME, organism-based; details: in vivo
[8] = system: Mycobacterium tuberculosis; type: functional; details: H37Rv, 120 h, time 5 day
[9] = system: Mycobacterium tuberculosis; type: functional; details: H37Rv, 336 h, time 14 day
[10] = system: Mycobacterium tuberculosis; test: Antibacterial activity against Mycobacterium tuberculosis Kurono in chronic Mtb infection Slc:ICR mouse model assessed as reduction in log10 CFU in lungs at 2.5 mg/kg, po qd for 4 weeks; type: functional
[11] = system: Mycobacterium tuberculosis; test: Antibacterial activity against Mycobacterium tuberculosis Erdman (TMCC 107) in chronic Mtb infection BALB/c mouse model assessed as reduction in log10 CFU in lungs at 100 mg/kg, po via gavage upto 8 weeks; type: functional
HepG2 [12] = test: Cytotoxicity against human HepG2 cells assessed as reduction in cell viability treated for 72 hrs by Cell Titer Glo assay; type: functional
[13] = system: Mycobacterium tuberculosis; test: Antibacterial activity against Mycobacterium tuberculosis Erdman in acute Mtb infection C57BL/6-IFN-gamma-tm1Ts KO mouse model assessed as reduction in log10 CFU in lungs at 50 mg/kg, po qd for 9 consecutive days; type: functional
[14] = system: Mycobacterium tuberculosis; test: Antibacterial activity against Mycobacterium tuberculosis Erdman (TMCC 107) in Mtb infection C3HeB/FeJ mouse model assessed as reduction in log10 CFU in lungs at 100 mg/kg, po via gavage upto 4 weeks; type: functional
[15] = Half life in CD-1 mouse at 5 mg/kg, iv measured for 24 hrs; type: ADME, organism-based; details: in vivo
[16] = Oral bioavailability in CD-1 mouse at 10 mg/kg measured for 24 hrs; type: ADME, organism-based; details: in vivo
[17] = system: Mycobacterium tuberculosis; type: functional; details: dose 100 mg/kg; route po; time 4 weeks
[18] = system: Mycobacterium tuberculosis; test: Bactericidal activity against Mycobacterium tuberculosis H37Rv in chronic Mtb infection BALB/c mouse model assessed as log10 CFU kill at 20 mg/kg, po qd via gavage measured after 4 weeks; type: functional
[19] = system: Mycobacterium tuberculosis; type: functional, H37Rv; details: dose 50 mg/kg/day; route po; time <= 28 day
[20] = system: Mycobacterium tuberculosis; type: functional, H37Rv; details: dose 25 mg/kg; route po; time 4 weeks
[21] = system: Mycobacterium tuberculosis; type: functional; details: H37Rv, time 6 day
[22] = system: Mycobacterium tuberculosis; type: functional; details: H37Rv
[23] = Half life in mouse; type: ADME, organism-based; details: in vivo
[24] = system: Mycobacterium tuberculosis; type: functional, H37Rv; details: dose 100 mg/kg
[25] = Aqueous solubility of compound in PBS at pH 7.4 incubated for 1 hr; type: physicochemical
[26] = system: Mycobacterium tuberculosis; type: functional, H37Rv; details: dose 300 mg/kg; time 8 day
[27] = Inhibition of bacterial InhA expressed in Escherichia coli BL21 (DE3) incubated for 1 hr by […]; parameters: species or system Bacteria
[28] = target: Voltage-gated inwardly rectifying potassium channel KCNH2 (Homo sapiens, UniProt Q12809); test: Inhibition of hERG by Qpatch assay; type: toxicity
Chain of Voltage-gated inwardly rectifying potassium channel KCNH2 (Q12809 whole entry): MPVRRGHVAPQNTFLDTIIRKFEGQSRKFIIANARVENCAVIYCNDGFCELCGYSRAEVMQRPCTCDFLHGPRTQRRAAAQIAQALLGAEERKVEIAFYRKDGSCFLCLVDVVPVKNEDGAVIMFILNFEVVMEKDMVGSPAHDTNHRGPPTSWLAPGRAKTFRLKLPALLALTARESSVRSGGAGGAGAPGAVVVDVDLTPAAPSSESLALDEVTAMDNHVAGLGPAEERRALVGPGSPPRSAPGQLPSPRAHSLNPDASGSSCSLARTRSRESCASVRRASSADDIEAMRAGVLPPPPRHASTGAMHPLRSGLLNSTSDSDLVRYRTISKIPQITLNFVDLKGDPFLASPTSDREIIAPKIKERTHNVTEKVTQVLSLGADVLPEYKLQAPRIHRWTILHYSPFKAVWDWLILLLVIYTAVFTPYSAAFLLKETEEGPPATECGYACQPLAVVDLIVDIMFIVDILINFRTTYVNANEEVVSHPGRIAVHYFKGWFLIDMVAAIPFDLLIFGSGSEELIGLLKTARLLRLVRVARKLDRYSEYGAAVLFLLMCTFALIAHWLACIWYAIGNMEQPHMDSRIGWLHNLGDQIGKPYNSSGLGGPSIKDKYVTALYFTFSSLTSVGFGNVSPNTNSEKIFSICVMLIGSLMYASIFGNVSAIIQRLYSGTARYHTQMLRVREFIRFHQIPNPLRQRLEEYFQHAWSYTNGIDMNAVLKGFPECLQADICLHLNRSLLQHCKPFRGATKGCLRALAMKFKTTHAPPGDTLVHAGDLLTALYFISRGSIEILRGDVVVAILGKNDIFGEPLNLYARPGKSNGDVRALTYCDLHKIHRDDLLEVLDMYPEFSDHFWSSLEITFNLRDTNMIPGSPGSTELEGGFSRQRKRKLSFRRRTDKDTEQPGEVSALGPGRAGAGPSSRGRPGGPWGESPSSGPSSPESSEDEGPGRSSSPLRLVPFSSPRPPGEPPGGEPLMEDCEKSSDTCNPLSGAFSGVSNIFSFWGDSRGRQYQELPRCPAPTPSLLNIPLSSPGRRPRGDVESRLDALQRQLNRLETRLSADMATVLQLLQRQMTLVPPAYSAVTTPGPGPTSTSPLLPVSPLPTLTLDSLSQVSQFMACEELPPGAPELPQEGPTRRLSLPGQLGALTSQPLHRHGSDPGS

[29] = system: Mycobacterium tuberculosis; type: functional, H37Rv
[30] = system: Mycobacterium tuberculosis; test: Antibacterial activity against non-replicating Mycobacterium tuberculosis assessed as inhibition of bacterial growth; type: functional
[31] = system: Mycobacterium tuberculosis; type: functional; details: H37Rv, 168 h, time 7 day
[32] = Cytotoxicity against human MRC5 cells; type: toxicity, cell-based
[33] = system: Mycobacterium tuberculosis; test: Antibacterial activity against Mycobacterium tuberculosis Erdman in acute Mtb infection BALB/c mouse model assessed as reduction in log10 CFU in lungs at 200 mg/kg, po daily via gavage for 3 weeks; type: functional

Question: For `CCc1cc(C(N)=S)ccn1` [ETHIONAMIDE], which MIC [1] is on record?
Answer: Its MIC is 12 µM (≈ 1.99 µg/mL).

Question: With `COc1ncnc(Cn2cc(C(=O)NCCO)c3ncc(C)cc32)c1C` [TBA-7371] as the compound, how does the Activity [2] read?
Answer: The Activity was 1 log10CFU.

Question: With `CCNC(=O)Nc1nc2cc(-c3cnc(C(C)(C)OP(=O)(O)O)nc3)c(F)c([C@H]3CCCO3)c2[nH]1` as the compound, how does the Activity [3] read?
Answer: The Activity was 2.5 log10CFU.

Question: Which MIC90 [1] does the source give for `C[C@@H](O)[C@H]1C(=O)N2C(C(=O)O)=C([C@H]3CCCO3)S[C@H]12` [FAROPENEM] here?
Answer: The MIC90 was 1.8 µM (≈ 0.514 µg/mL).

Question: What about the Activity [4] of the same compound?
Answer: Its Activity is 2.4 log10CFU.

Question: Which CC50 (HepG2 [5]) does the source give for `FC(F)(F)Oc1ccc(Oc2ccc(CN3CCC4(CC3)OCCc3sccc34)cc2)cc1` here?
Answer: The CC50 was 36 µM.

Question: What about the solubility [6] of the same compound?
Answer: The solubility was 6 µM (≈ 2.85 µg/mL).

Question: And the MIC90 [1]?
Answer: The MIC90 was 0.06 µM (≈ 0.0285 µg/mL).

Question: What about the bioavailability [7] of the same compound?
Answer: The bioavailability was 55%.

Question: With `O=C(C1CCN(c2nnc(-n3cccc3)s2)CC1)N1CCC(Cc2ccccc2)CC1` as the compound, how does the MIC90 [1] read?
Answer: The MIC90 was 4 µM (≈ 1.74 µg/mL).

Question: For `CS(=O)(=O)N1N=Cc2ccc(Oc3ccc(C#N)cc3)cc2B1O`, which MIC90 [8] is on record?
Answer: The MIC90 was 36 µM (≈ 12.3 µg/mL).

Question: Which MIC90 [9] does the source give for `O=C(Nc1ccc(N2CCSCC2)c(F)c1)c1ccc2no[n+]([O-])c2c1` here?
Answer: The MIC90 was 0.7 µM (≈ 0.262 µg/mL).

Question: With `Fc1ccc(-c2nnc3sc(COc4ccccc4)nn23)cc1` as the compound, how does the MIC [1] read?
Answer: Its MIC is 25 µM (≈ 8.16 µg/mL).

Question: For `CC(C)=CCC/C(C)=C/CNCCNC1C2CC3CC(C2)CC1C3` (configuration not stated) [SQ109], which MIC [1] is on record?
Answer: The MIC was 1.2 µM (≈ 0.397 µg/mL).

Question: For `CCOC(=O)c1c(-c2ccccc2)oc2ccc(O)c(CN3CCC(C)CC3)c12`, which MIC90 [1] is on record?
Answer: The MIC90 was 2.5 µM (≈ 0.984 µg/mL).

Question: For `O=C1CCc2c(OC[C@]3(O)CCN(c4c(F)cc(Cl)cc4F)C[C@H]3O)ccc(F)c2N1` [QUABODEPISTAT], which Activity [10] is on record?
Answer: The Activity was greater than 1 log10CFU.

Question: Which MIC50 [1] does the source give for `FC(F)(F)c1ccc(Oc2ccc(Nc3ncnc4ccccc34)cc2)cc1` here?
Answer: Its MIC50 is 25 µM (≈ 9.53 µg/mL).

Question: What does the source list for `CCS(=O)(=O)N1N=Cc2ccc(Oc3ccc(C(F)(F)F)cc3/C=N/O)cc2B1O`?
Answer: MIC90 [8]: 0.09 µM (≈ 0.0397 µg/mL); Activity [11]: 1.7 log10CFU; CC50 (HepG2 [12]): > 100 µM; Activity [13]: 3.7 log10CFU; Activity [14]: 1.5 log10CFU; half-life [15]: 3.5 h; bioavailability [16]: 53%

Question: For `CC1(C)CCC(NC(=O)c2cc3c(Cl)cc(Cl)cc3[nH]2)CC1`, which MIC90 [1] is on record?
Answer: The MIC90 was 0.02 µM (≈ 0.00679 µg/mL).

Question: What about the Activity [17] of the same compound?
Answer: Its Activity is 3.1 log10CFU.

Question: With `CC(C)/N=c1\cc2n(-c3ccc(Cl)cc3)c3ccccc3nc-2cc1Nc1ccc(Cl)cc1` [CLOFAZIMINE] as the compound, how does the Activity [18] read?
Answer: The Activity was 2.2 log10CFU.

Question: Which Activity [19] does the source give for `O=c1nc(N2CCN(CC3CCCCC3)CC2)sc2c([N+](=O)[O-])cc(C(F)(F)F)cc12` [MACOZINONE] here?
Answer: Its Activity is 1.1 log10CFU.

Question: What about the Activity [20] of the same compound?
Answer: Its Activity is 1 log10CFU.

Question: Which MIC80 [1] does the source give for `O=c1c(NCc2ccccn2)c(-c2ccc(C(F)(F)F)cc2)c1=O` here?
Answer: Its MIC80 is 6.2 µM (≈ 2.06 µg/mL).

Question: Which MIC80 [1] does the source give for `CC(=O)NC[C@H]1CN(c2ccc(N3CCSCC3)c(F)c2)C(=O)O1` [SUTEZOLID] here?
Answer: The MIC80 was 0.28 µM (≈ 0.099 µg/mL).

Question: Which MIC [21] does the source give for `CNc1nc(SC)nc2ccccc12` here?
Answer: The MIC was 0.13 µM (≈ 0.0267 µg/mL).

Question: For `Cc1csc([C@](C)(O)c2nnc(Nc3ccn(Cc4csc(C)n4)n3)s2)n1`, which CC50 (HepG2 [5]) is on record?
Answer: Its CC50 is greater than 50 µM.

Question: What about the MIC90 [22] of the same compound?
Answer: The MIC90 was 0.2 µM (≈ 0.0839 µg/mL).

Question: And the half-life [23]?
Answer: The half-life was 0.933 h.

Question: And the Activity [24]?
Answer: Its Activity is 3 log10CFU.

Question: What about the bioavailability [7] of the same compound?
Answer: The bioavailability was 92%.

Question: And the solubility at 1 h [25]?
Answer: Its solubility at 1 h is 413 µM (≈ 173 µg/mL).

Question: And the Activity [26]?
Answer: The Activity was 3 log10CFU.

Question: And the IC50 [27]?
Answer: Its IC50 is 0.007 µM.

Question: And the IC50 [28]?
Answer: The IC50 was greater than 50 µM.

Question: Which MIC90 [1] does the source give for `COc1nc2ccc(Br)cc2cc1[C@@H](c1ccccc1)[C@@](O)(CCN(C)C)c1cccc2ccccc12` [BEDAQUILINE] here?
Answer: Its MIC90 is 0.022 µM (≈ 0.0122 µg/mL).

Question: What about the Ratio [29] of the same compound?
Answer: Its Ratio is 6.

Question: With `O=C(N/N=C/c1cccc(Oc2no[n+]([O-])c2S(=O)(=O)c2ccccc2)c1)c1ccncc1` as the compound, how does the MIC90 [30] read?
Answer: Its MIC90 is 6.7 µM (≈ 3.12 µg/mL).

Question: And the MIC [31]?
Answer: The MIC was 1.6 µM (≈ 0.745 µg/mL).

Question: What about the CC50 [32] of the same compound?
Answer: The CC50 was 30 µM.

Question: And the Activity [33]?
Answer: Its Activity is greater than 6 log10CFU.
